The values below come from patent US4081441A, “Antibacterial agents” (priority 1977, dated 1978).

For assay [1], the system named is Pseudomonas aeruginosa. The assay is described as follows: In vitro bactericidal synergism, broth dilution checkerboard. In kind it is cell-based. Conditions: for MBC: Pseudomonas aeruginosa, drug alone. (In broth dilution the organism is exposed to a series of concentrations in liquid medium.)
Assay [2] deals with Pseudomonas aeruginosa A9843A. It counts as in vivo, mice. The note with it: intramuscular, mice; as effective as combination 1.25 mg./kg. BL-P1908 + 2 mg./kg. amikacin.
Assay [3] has as its system Pseudomonas aeruginosa. Conditions: prior art; cited from earlier work.

Where a name gives a salt, the structure may show the parent alone. Read-outs that look alike come from different tables or passages of the source.

Consider `NCC[C@H](O)C(=O)N[C@@H]1C[C@H](N)[C@@H](O[C@H]2O[C@H](CN)[C@@H](O)[C@H](O)[C@H]2O)[C@H](O)[C@H]1O[C@H]1O[C@H](CO)[C@@H](O)[C@H](N)[C@H]1O` [Amikacin, 1-[L-(-)-γ-amino-α-hydroxybutryl]kanamycin A], for which the MBC is 8 µg/mL in the assay on Pseudomonas aeruginosa [1] (strain A20552, read-out: Minimum Bactericidal Concentration); 125 µg/mL with Pseudomonas aeruginosa [1] (strain A21509, read-out: Minimum Bactericidal Concentration); 64 µg/mL in the assay with Pseudomonas aeruginosa [1] (strain A21510, read-out: Minimum Bactericidal Concentration). Also, the strain sensitivity entry in the assay with Pseudomonas aeruginosa [1] (strain A9843A) was “sensitive”; in the assay with Pseudomonas aeruginosa [1] (strain A20480), “sensitive”; with Pseudomonas aeruginosa [1] (strain A20552), “sensitive”; with Pseudomonas aeruginosa [1] (strain A20620), “resistant”; in the assay with Pseudomonas aeruginosa [1] (strain A21509), “resistant”; in the assay on Pseudomonas aeruginosa [1] (strain A21510), “resistant”. The “equally effective dosage, drug alone” value in assay [2] was determined as 8 mg/kg.

As for `NCC[C@H](O)C(=O)N[C@@H]1C[C@H](N)[C@@H](O[C@H]2O[C@H](CN)[C@@H](O)[C@H](O)[C@H]2O)[C@H](O)[C@H]1O[C@H]1O[C@H](CO)[C@@H](O)[C@H](N)[C@H]1O` [amikacin sulfate], in the assay with Pseudomonas aeruginosa [1] (read-out: Minimum Bactericidal Concentration, strain A9843A), the MBC stood at 4 µg/mL.

For `CC1(C)S[C@@H]2[C@H](NC(=O)C(c3ccccc3)S(=O)(=O)O)C(=O)N2[C@H]1C(=O)O` (stereo partly shown) [sulbenicillin], the “potency against Pseudomonas aeruginosa” value with Pseudomonas aeruginosa [3] is “relatively low potency”.

Consider `CC1(C)S[C@@H]2[C@H](NC(=O)[C@H](C(=O)O)c3ccsc3)C(=O)N2[C@H]1C(=O)O` [ticarcillin], for which the “potency against Pseudomonas aeruginosa” value with Pseudomonas aeruginosa [3] is on record as “relatively low potency”.
